Measured values reported in the supplement of paper PMC4862054.
Several values for one entry are separate records, joined by “and”; a condition that tells them apart may be missing. Identical values can stand only once.

What was measured:
Conditions in all cases: incubation time: 72 h
[1] = test system: HDQ-P1; assay: normalised response (% of control), CellTiter-Glo; higher = more viable cells (100 = DMSO, 0 = benzethonium chloride kill control)
Summary of the method: (§1)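 Each entry is the normalised signal at a single concentration within a series. The series comprised 5 concentrations in 10-fold steps over a compound-specific 10,000-fold range, placed in 384-well plates into which breast cancer cell lines were seeded as 20 µl suspension and incubated 72 h. CellTox Green (485/520 nm) fluorescence and then CellTiter-Glo luminescence were read, with signals normalised per plate to 0.1 % DMSO (100) and a positive kill control (0).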

[2] = test system: BT-549; assay: as above
Summary of the method: as §1

[3] = test system: MCF-10A; assay: as above
Summary of the method: as §1

[4] = test system: HCC1143; assay: as above
Summary of the method: as §1

[5] = test system: CAL-120; assay: as above
Summary of the method: as §1

[6] = test system: Hs578T; assay: as above
Summary of the method: as §1

[7] = test system: CAL-85-1; assay: normalised viability (% of control), CellTiter-Blue; higher = more viable cells (about 100 = DMSO control)
Procedure: (§2)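 DSRT, CellTiter-Blue viability, 72 h incubation. Signal is normalised to DMSO and benzethonium chloride controls. Value is the normalised response at dose 7.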

[8] = test system: HDQ-P1; assay: as above
Procedure: as §2

[9] = test system: CAL-148; assay: as above
Procedure: as §2

[10] = test system: CAL-51; assay: as above
Procedure: as §2

[11] = test system: MDA-MB-453; assay: as above
Procedure: as §2

[12] = test system: DU-4475; assay: as above
Procedure: as §2

Row | Structure (SMILES) | normalised response [1] [%] | normalised response [2] [%] | normalised response [3] [%] | normalised response [4] [%] | normalised response [5] [%] | normalised response [6] [%] | normalised viability [7] | normalised viability [8] | normalised viability [9] | normalised viability [10] | normalised viability [11] | normalised viability [12]
1 | COc1ccc(-c2cc3c(C)nc(N)nc3n([C@H]3CC[C@H](OCCO)CC3)c2=O)cn1 (1000 nM) | 21.9 | 17.8 | 19.5 | 21.4 | 27 | 19.3 | 23.1% | 12.2% | 18.1% | 12.9% | 7.65% | 42.9%
2 | COc1cc(CCc2cc(NC(=O)c3ccc(N4CC(C)NC(C)C4)cc3)n[nH]2)cc(OC)c1 (configuration not stated) [AZD4547] (100 nM) | 104 | 88.4 | 86.2 | 93.1 | 80 | 88.1 | 74.9% | 106% | 106% | 101% | 78.1% | 84.3%
3 | CCC/C=C/C=C/C(=O)O[C@H]1/C(=C/C(=O)OC)C[C@H]2C[C@H]([C@@H](C)O)OC(=O)C[C@H](O)C[C@@H]3C[C@H](OC(C)=O)C(C)(C)[C@](O)(C[C@@H]4C/C(=C/C(=O)OC)C[C@H](/C=C/C(C)(C)[C@]1(O)O2)O4)O3 [Bryostatin 1] (10 nM) | 91.6 | 94.2 | 103 | 104 | 101 | 76.9 | 98.7% | 118% | 98.1% | 109% | 92.2% | 76.5%
4 | CO[C@@H](C(=O)N1Cc2[nH]nc(NC(=O)c3ccc(N4CCN(C)CC4)cc3)c2C1)c1ccccc1 [Danusertib] (1000 nM) | 82.5 | 51.4 | 46.2 | 75.1 | 75.7 | 81.6 | 50.8% | 45.6% | 47.2% | 44.9% | 41.7% | 46.3%
5 | Cc1nc(Nc2ncc(C(=O)Nc3c(C)cccc3Cl)s2)cc(N2CCN(CCO)CC2)n1 [Dasatinib] (100 nM) | 35.3 | 61.7 | 32.5 | 67.9 | 57.5 | 61.5 | 56.4% and 53% | 15.8% and 11.4% | 109% and 93.3% | 47.8% and 48.7% | 88.2% and 94.5% | 95.1% and 108%
6 | Cc1c(CN2CCN(C(=O)[C@H](C)O)CC2)sc2c(N3CCOCC3)nc(-c3cnc(N)nc3)nc12 [GDC-0980] (1000 nM) | 35.2 | 36.4 | 39.2 | 45.7 | 46.8 | 41.9 | 27.1% | 24.7% | 15.3% | 16.5% | 8.12% | 50.2%
7 | Nc1cccc2c1CN(C1CCC(=O)NC1=O)C2=O (configuration not stated) [Lenalidomide] (1000 nM) | 101 | 97.6 | 103 | 101 | 93.8 | 104 | 80% and 74.3% | 110% and 96.9% | 95.3% and 104% | 103% and 100% | 85.6% and 104% | 110% and 88.9%
8 | C[C@]12O[C@H](C[C@]1(O)CO)n1c3ccccc3c3c4c(c5c6ccccc6n2c5c31)CNC4=O [Lestaurtinib] (100 nM) | 95.8 | 76.1 | 62.3 | 79.4 | 62.8 | 80.2 | 99.5% | 87.8% | 104% | 110% | 75.1% | 79.6%
9 | O=C1c2c(O)ccc(O)c2C(=O)c2c(NCCNCCO)ccc(NCCNCCO)c21 [Mitoxantrone] (100 nM) | 96.4 | 90.1 | 96.2 | 96 | 34.6 | 104 | 63.4% | 74.2% | 25.1% | 31.2% | 71.3% | 13%
10 | Nc1ccccc1NC(=O)c1ccc(CNc2nccc(-c3cccnc3)n2)cc1 [Mocetinostat] (1000 nM) | 80.8 | 66 | 140 | 91 | 83.8 | 74 | 68.7% | 90.1% | 65.5% | 77.8% | 41.6% | 39.2%
11 | COc1nc(N)nc2c1ncn2[C@@H]1O[C@H](CO)[C@@H](O)[C@@H]1O [Nelarabine] (1000 nM) | 96.7 | 94.1 | 82.8 | 89.3 | 98.7 | 98.7 | 101% and 98.4% | 76.9% and 92.7% | 102% and 122% | 96.7% and 110% | 101% and 89.3% | 103% and 110%
12 | Cc1ccc(Nc2nccc(N(C)c3ccc4c(C)n(C)nc4c3)n2)cc1S(N)(=O)=O [Pazopanib] (1000 nM) | 100 | 98.4 | 92.5 | 106 | 87.3 | 95.6 | 87.6% | 99.8% | 85.6% | 84.2% | 68.8% | 107%
13 | O=C(CCBr)N1CCN(C(=O)CCBr)CC1 [Pipobroman] (1000 nM) | 97.2 | 102 | 97 | 112 | 99.3 | 108 | 88.8% | 91.2% | 95.5% | 114% | 93.4% | 98.1%
14 | CC[C@@]1(O)C(=O)OCc2c1cc1n(c2=O)Cc2cc3c(CN(C)C)c(O)ccc3nc2-1 [Topotecan] (100 nM) | – | – | – | – | – | – | 85.7% | 102% | 45.5% | 73.3% | 90.4% | 61.2%
